Results taken from patent publication US11179412B2, “Methods of treating conditions involving elevated inflammatory response” (University of Pittsburgh—Of the Commonwealth System of …, priority 2017, dated 2021).
Counter-ions that a name gives are not always drawn.

System: STING activation (IFNβ release) in iBMDMs
Test: IFNβ release ELISA after STING ligand (or LPS) stimulation, iBMDMs
Type: cell-based, mouse
Details: iBMDMs; 3′3′-cGAMP 10 μg/ml, 16 hours; compound 10 μM
Method in brief: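 iBMDMs were stimulated with a STING ligand such as 3′3′-cGAMP, or with LPS. Secreted IFNβ in culture medium was measured by commercial mouse or human IFNβ ELISA.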

SMILES	fold increase in IFN-β release	3′3′-cGAMP-induced IFNβ release
Cc1ccc(C(=O)N(CCCN)[C@@H](c2nc3cc(Cl)ccc3c(=O)n2Cc2ccccc2)C(C)C)cc1 [Ispinesib (SB-715992), Ispinesib]	2.12 fold	
CCn1c(=O)c2c(nc(/C=C/c3ccc(OC)c(OC)c3)n2C)n(CC)c1=O [Istradefylline]	1.90 fold	
CC(C)(C)c1cc(C(C)(C)C)c(NC(=O)c2c[nH]c3ccccc3c2=O)cc1O [Ivacaftor (VX-770), Ivacaftor]	1.27 fold	
O=C(Nc1ccccc1)N1CCN(c2nc(-c3ccccc3)ns2)CC1 [JNJ-1661010]	1.03 fold	
N#Cc1c(NC(=O)c2cccc3ccccc23)sc2c1CCCC2 [JNK Inhibitor IX]	0.53 fold	
Cc1ccc(NCCCc2ccccc2)c(N)c1 [JSH-23]	2.80 fold	
COc1cc(-c2ncn(/C=C\C(=O)OC(C)C)n2)cc(C(F)(F)F)c1 [KPT-185]	0.59 fold	
O=C(/C=C\n1cnc(-c2cc(C(F)(F)F)cc(C(F)(F)F)c2)n1)N1CC(F)(F)C1 [KPT-276]	0.54 fold	
O=c1cc(-c2cccc3c2Sc2ccccc2S3)oc(N2CCOCC2)c1 [KU-55933 (ATM Kinase Inhibitor)]	0.33 fold	
COC(=O)CCSCc1ccc(-c2onc(C)c2NC(=O)OC(C)c2ccccc2Cl)cc1 (centres unmarked) [Ki16198]	0.51 fold	
Cc1noc(-c2ccc(CSCCC(=O)O)cc2)c1NC(=O)OC(C)c1ccccc1Cl (centres unmarked) [Ki16425]	1.41 fold	
O=C(c1cn(Cc2cncn2Cc2ccc(Br)cc2)cc1-c1cccc2ccccc12)N1CCOCC1 [LB42708]	1.35 fold	
COc1ccccc1-c1cc(Nc2cccc(CS(N)(=O)=O)c2)ncn1 [LDC000067]	1.43 fold	
Cc1c(C(=O)Nc2ccc(N3C[C@@H](C)O[C@@H](C)C3)nc2)cccc1-c1ccc(OC(F)(F)F)cc1 [LDE225 (NVP-LDE225, Erismodegib), Erismodegib]	1.31 fold	
c1cc(-c2cnn3cc(-c4ccc(N5CCNCC5)cc4)cnc23)c2cccnc2c1 [LDN-212854]	0.33 fold	
C[C@H](NC(=O)[C@@H](O)c1cc(F)cc(F)c1)C(=O)N[C@@H]1C(=O)N(C)c2ccccc2-c2ccccc21 [LY411575]	0.26 fold	
Cc1cccc(-c2nn3c(c2-c2ccnc4ccc(C(N)=O)cc24)CCC3)n1 [LY2157299]	2.50 fold	
CC(C)(C)Cn1c(N)nc2ccc(-c3[nH]c(C(C)(C)C)nc3-c3ccc(F)cc3)nc21 [LY2228820]	5.15 fold	
Cc1cnc(NC(=O)Nc2cc(Br)c(C)cc2OC[C@@H]2CNCCO2)cn1 [LY2603618]	1.08 fold	
Cc1cc(Nc2cc(CN3CCOCC3)c3nc(C)c(Cc4ccc(Cl)cc4F)n3n2)n[nH]1 [LY2784544]	2.09 fold	
CC(CCc1ccccc1)NCC(O)c1ccc(O)c(C(N)=O)c1 (centres unmarked) [Labetalol HCl]	2.96 fold	
O=C(C[S+]([O-])Cc1ccco1)NC/C=C\COc1cc(CN2CCCCC2)ccn1 (centres unmarked) [Lafutidine]	2.85 fold	
Nc1cccc2c1CN(C1CCC(=O)NC1=O)C2=O (centres unmarked) [Lenalidomide (CC-5013), Lenalidomide]	1.09 fold	
N#Cc1ccc(C(c2ccc(C#N)cc2)n2cncn2)cc1 [Letrozole]	0.61 fold	

SMILES	fold increase in IFN-β release	3′3′-cGAMP-induced IFNβ release
CCN1CCC[C@H]1CNC(=O)c1cc(S(N)(=O)=O)ccc1OC [Levosulpiride]	1.91 fold	
CCN(CC)CC(=O)Nc1c(C)cccc1C [Lidocaine]	9.58 fold	promoted
CC#CCn1c(N2CCC[C@@H](N)C2)nc2c1c(=O)n(Cc1nc(C)c3ccccc3n1)c(=O)n2C [Linagliptin]	2.07 fold	
Nc1nc(OCc2cc(Br)cs2)c2[nH]cnc2n1 [Lomeguatrib]	1.27 fold	
CCOC(=O)N1CCC(=C2c3ccc(Cl)cc3CCc3cccnc32)CC1 [Loratadine]	3.65 fold	
CCCCc1nc(Cl)c(CO)n1Cc1ccc(-c2ccccc2-c2nn[nH]n2)cc1 [Losartan Potassium (DuP 753), Losartan Potassium]	1.35 fold	
Cc1c(F)cc(C(=O)NC2CC2)cc1-c1ccc(C(=O)NCC(C)(C)C)cn1 [Losmapimod (GW856553X), Losmapimod]	1.20 fold	
CC[C@H](C)C(=O)O[C@H]1C[C@@H](C)C=C2C=C[C@H](C)[C@H](CC[C@@H]3C[C@@H](O)CC(=O)O3)[C@H]21 [Lovastatin]	1.22 fold	
CC(C)CCNC(=O)[C@H](CC(C)C)NC(=O)[C@H]1O[C@@H]1C(=O)O [Loxistatin Acid (E-64C), Loxistatin Acid]	0.70 fold	
C=CCn1c(=O)c2cnc(Nc3ccc(N4CCN(C)CC4)cc3)nc2n1-c1cccc(C(C)(C)O)n1 [MK-1775]	4.54 fold	
Cl.Cl.NC1(c2ccc(-c3nc4ccn5c(=O)[nH]nc5c4cc3-c3ccccc3)cc2)CCC1 [MK-2206 2HCl]	1.02 fold	
C[C@](O)(COc1ccc(C#N)cc1)C(=O)Nc1ccc(C#N)c(C(F)(F)F)c1 [MK-2866 (GTx-024)]	1.47 fold	
O=C(O)Cn1nnc(-c2cc(N3CCC(Oc4cc(F)ccc4Br)CC3)no2)n1 [MK-8245]	0.42 fold	
COc1ccc(CNCc2cccc3ccccc23)cc1.Cl [ML133 HCl]	0.59 fold	
CCCC(=O)Nc1cccc(NC(=O)c2ccccc2Br)c1 [ML161]	0.95 fold	
Cc1cnc(-c2ccccc2C(C)C)nc1NCc1ccc(-n2ccnn2)cc1 [ML323]	0.43 fold	
COc1ccc(-c2cnc3c(-c4cccc5ncccc45)cnn3c2)cc1 [ML347]	1.95 fold	
CC(C)C[C@H](NC(=O)CNC(=O)c1cc(Cl)ccc1Cl)B(O)O [MLN2238]	4.76 fold	
O=C(O)c1ccc(Nc2ncc3c(n2)-c2ccc(Cl)cc2C(c2c(F)cccc2F)=NC3)cc1 [MLN8054]	0.77 fold	
CCC(CC)(NC(=O)C(C)C)C(=O)N[C@@H](CCCN=C(N)N)C(=O)NC1(C(=O)NC(c2ccc(F)cc2)c2ccc(F)cc2)CCCC1 [MM-102]	2.32 fold	
S=C=Nc1cccc(NC(=S)NCCCCNC(=S)Nc2cccc(N=C=S)c2)c1 [MRS 2578]	1.31 fold	
COc1cc(-n2c(=S)[nH]c3ccccc3c2=O)c(Cl)cc1Cl [Mdivi-1]	2.10 fold	
CC12CC3CC(C)(C1)CC(N)(C3)C2 [Memantine HCl]	2.60 fold	
CN(Cc1cnc2nc(N)nc(N)c2n1)c1ccc(C(=O)N[C@@H](CCC(=O)O)C(=O)O)cc1 [Methotrexate]	0.68 fold	

SMILES	fold increase in IFN-β release	3′3′-cGAMP-induced IFNβ release
CCN(CC)CCNC(=O)c1cc(Cl)c(N)cc1OC [MetoclopraMide HCl]	2.14 fold	
Nc1nc(CC(=O)Nc2ccc(CCNC[C@H](O)c3ccccc3)cc2)cs1 [Mirabegron]	0.69 fold	
O=C(NCCN1CCOCC1)c1ccc(Cl)cc1 [Moclobemide (Ro 111163), Moclobemide]	1.88 fold	
FC(F)(F)c1ccc(/C=C/c2nc(COc3ccc(CCCCn4ccnn4)cc3)co2)cc1 [Mubritinib (TAK 165), Mubritinib]	0.56 fold	
Cc1cc(C(N)=O)ccc1-n1c(CCC(=O)O)ccc1-c1ccc(-n2ccnc2)cc1 [N6022]	0.75 fold	
CCCCCCCCCCCCCCCCn1cc[n+](Cc2ccccc2)c1C.[I-] [NH125]	0.11 fold	
Cc1cc(OCc2nnc(SC3CCCC3)n2-c2cccnc2)ccc1-c1ccc(S(C)(=O)=O)cc1 [NMS-873]	1.90 fold	
CN1CCN(c2ccc(OC(F)(F)F)c(Nc3ncc4c(n3)-c3c(c(C(N)=O)nn3CCO)CC4)c2)CC1 [NMS-P937 (NMS1286937)]	0.73 fold	
CC(C)(Cc1ccc2ccccc2c1)NC[C@@H](O)COc1cccc(Cl)c1C#N [NPS-2143]	0.99 fold	
Cc1ccc(S(=O)(=O)c2ccc([N+](=O)[O-])o2)cc1 [NSC697923]	0.51 fold	
CCN(CC)CCCC(C)Nc1nc(C)cc(Nc2ccc3nc(C)cc(N)c3c2)n1 (centres unmarked) [NSC 23766]	1.30 fold	
C/C(=N\NC(=S)N1CCC1)c1ccccn1 [NSC 319726]	2.43 fold	
CCCC(C)NC(=O)c1ccc(Cl)c(Cl)c1 (centres unmarked) [NSC 405020]	1.24 fold	
Nc1ncnc2c1c(-c1cccc(OCc3ccccc3)c1)cn2C1CC(CN2CCCC2)C1 (centres unmarked) [NVP-ADW742]	0.61 fold	
COc1ccccc1N1CCN(CC(O)COc2cccc3ccccc23)CC1 (centres unmarked) [Naftopidil]	2.46 fold	
O=C1CC[C@@]2(O)[C@H]3Cc4ccc(O)c5c4[C@@]2(CCN3CC2CC2)[C@H]1O5 [Naltrexone HCl]	3.12 fold	
COc1ccc2cc([C@H](C)C(=O)O)ccc2c1 [Naproxen]	1.46 fold	
OC(CNCC(O)C1CCc2cc(F)ccc2O1)C1CCc2cc(F)ccc2O1 (centres unmarked) [Nebivolol]	0.75 fold	
CN1C(=O)C(Cc2c[nH]c3ccccc23)NC1=S (centres unmarked) [Necrostatin-1]	1.60 fold	
Cc1cn(-c2cc(NC(=O)c3ccc(C)c(Nc4nccc(-c5cccnc5)n4)c3)cc(C(F)(F)F)c2)cn1 [Nilotinib (AMN-107), Nilotinib]	0.77 fold	
COC(=O)C1=C(C#N)NC(C)=C(C(=O)OC(C)C)C1c1cccc([N+](=O)[O-])c1 (centres unmarked) [Nilvadipine]	1.79 fold	
C[C@]1(O)C[C@@H](c2nc(-c3ccc4ccc(-c5ccccc5)nc4c3)c3c(N)nccn32)C1 [OSI-906 (Linsitinib), Linsitinib]	0.66 fold	
